According to US8435978B2, “Substituted sulfonamide compounds” (Gruenenthal GmbH, priority 2006, dated 2013):
Where a name gives a salt, the structure may show the parent alone.

Experiments:
human B1R receptor = molecular target: T1, human B1R receptor (Homo sapiens, UniProt P46663); test: Functional study on the bradykinin receptor 1 (B1R), FLIPR Ca2+ assay, hB1R cells; format: cell-based; conditions: agonist Lys-Des-Arg9-bradykinin 0.5 nM, % inhibition compared with the maximum achievable inhibition; for inhibition at 10 µM: CHO-K1, test substance 10 μM, read-out: B1R Antagonism, human [10 μM] % Inhibition; for B1R Antagonism, human [10 μM] % Inhibition: test substance 10 μM, hB1R CHO K1 cells
T1 construct: host or cells: CHO K1 cells (Chinese hamster ovary), stably transfected
T1 sequence (P46663 1-353): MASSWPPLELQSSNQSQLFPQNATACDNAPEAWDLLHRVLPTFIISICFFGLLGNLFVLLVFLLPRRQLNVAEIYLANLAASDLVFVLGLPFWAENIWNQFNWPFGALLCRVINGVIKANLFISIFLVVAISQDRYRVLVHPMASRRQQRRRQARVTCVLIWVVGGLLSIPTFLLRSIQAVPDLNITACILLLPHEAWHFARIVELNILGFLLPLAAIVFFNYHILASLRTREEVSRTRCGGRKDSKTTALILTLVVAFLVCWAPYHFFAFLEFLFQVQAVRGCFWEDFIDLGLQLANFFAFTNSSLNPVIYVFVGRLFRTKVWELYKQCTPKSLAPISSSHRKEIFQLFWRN
In short: (§1)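 FLIPR Ca2+ assay in recombinant CHO K1 cells (human or rat B1R), Fluo-4 dye; 10 μM compound, 10 min, then EC-level agonist per species (0.5 nM Lys-Des-Arg9-BK human / 100 nM Des-Arg9-BK rat). Output: % inhibition vs maximum.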

B1R receptor of the rat = molecular target: T2, B1R receptor of the rat (Rattus norvegicus, UniProt P97583); test: Functional study on the bradykinin receptor 1 (B1R), FLIPR Ca2+ assay, rB1R cells; format: cell-based; conditions: agonist Des-Arg9-bradykinin 100 nM, % inhibition compared with the maximum achievable inhibition; for inhibition at 10 µM: CHO-K1, test substance 10 μM, read-out: B1R Antagonism, rat [10 μM] % Inhibition; for B1R Antagonism, rat [10 μM] % Inhibition: test substance 10 μM, rB1R CHO K1 cells
T2 construct: host or cells: CHO K1 cells (Chinese hamster ovary), stably transfected
T2 sequence (P97583 1-337): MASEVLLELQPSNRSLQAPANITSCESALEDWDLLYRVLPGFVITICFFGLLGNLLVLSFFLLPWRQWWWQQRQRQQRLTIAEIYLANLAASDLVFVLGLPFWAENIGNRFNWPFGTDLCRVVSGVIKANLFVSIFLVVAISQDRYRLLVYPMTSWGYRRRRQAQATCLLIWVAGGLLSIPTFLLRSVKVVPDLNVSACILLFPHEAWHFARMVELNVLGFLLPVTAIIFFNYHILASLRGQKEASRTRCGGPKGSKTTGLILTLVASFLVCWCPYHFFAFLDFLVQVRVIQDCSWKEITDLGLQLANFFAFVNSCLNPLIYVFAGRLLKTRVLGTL
In short: as §1

Row | Compound | inhibition at 10 µM (human B1R receptor) [%] | inhibition at 10 µM (B1R receptor of the rat) [%] | B1R Antagonism, human [10 μM] % Inhibition (human B1R receptor) [%] | B1R Antagonism, rat [10 μM] % Inhibition (B1R receptor of the rat) [%]
1 | COc1cc(C)c(S(=O)(=O)N2CCCCC2COCC(=O)N(Cc2ccc(N(C)C)cc2)C(C)C)c(C)c1 (stereo not drawn) [Example 367, N-(4-(dimethylamino)benzyl)-N-isopropyl-2-((1-(4-methoxy-2,6-dimethylphenylsulfonyl)piperidin-2-yl)methoxy)acetamide] | 20.1 | 103 | – | –
2 | COc1cc(C)c(S(=O)(=O)N2CCCCC2COCC(=O)N(C)CCC2CCC(N3CCCC3)CC2)c(C)c1 (stereo not drawn) [Example 194, 2-((1-(4-methoxy-2,6-dimethylphenylsulfonyl)piperidin-2-yl)methoxy)-N-methyl-N-(2-(4-(pyrrolidin-1-yl)cyclohexyl)ethyl)acetamide] | 103 | 100 | – | –
3 | CN1CCC(N2CCN(C(=O)COCC3CCCCN3S(=O)(=O)c3ccc(C(F)(F)F)cc3Cl)CC2)CC1 (stereo not drawn) [Example 138, 2-((1-(2-chloro-4-(trifluoromethyl)phenylsulfonyl)piperidin-2-yl)methoxy)-1-(4-(1-methylpiperidin-4-yl)piperazin-1-yl)ethanone] | 104 | 98.5 | – | –
4 | N-(4-(dimethylamino)butyl)-2-((1-(2,4,6-trichlorophenylsulfonyl)pyrrolidin-2-yl)methoxy)acetamide [Example 294] | – | – | 105.91 | 100
5 | COc1cc(C)c(S(=O)(=O)N2CCCC2COCC(=O)N2CCN(Cc3cccc(C#N)c3)CC2)c(C)c1 (stereo not drawn) [Example 93, 3-((4-(2-((1-(4-methoxy-2,6-dimethylphenylsulfonyl)pyrrolidin-2-yl)methoxy)acetyl)-piperazin-1-yl)methyl)benzonitrile hydrochloride] | 106 | 99.1 | – | –
6 | COc1cc(C)c(S(=O)(=O)N2CCCCC2COCC(=O)NCc2ccc(CN3CCOCC3)cc2)c(C)c1 (stereo not drawn) [Example 24, 2-[1-(4-methoxy-2,6-dimethyl-phenylsulfonyl)-piperidin-2-ylmethoxy]-N-(4-morpholin-4-ylmethyl-benzyl)-acetamide] | 92.2 | 107 | – | –
7 | CN1CCC(N2CCN(C(=O)COCC3CCCCN3S(=O)(=O)c3cccc4c(N(C)C)cccc34)CC2)CC1 (stereo not drawn) [Example 158, 2-((1-(5-(dimethylamino)naphthalen-1-ylsulfonyl)piperidin-2-yl)methoxy)-1-(4-(1-methylpiperidin-4-yl)piperazin-1-yl)ethanone dihydrochloride] | 98.5 | 99.3 | – | –
8 | CN1CCC(N2CCN(C(=O)COCC3CCCCN3S(=O)(=O)c3ccc(Cl)cc3Cl)CC2)CC1 (stereo not drawn) [Example 120, 2-((1-(2,4-dichlorophenylsulfonyl)piperidin-2-yl)methoxy)-1-(4-(1-methylpiperidin-4-yl)piperazin-1-yl)ethanone] | 103 | 103 | – | –
9 | COc1ccc(S(=O)(=O)N2c3ccccc3CCC2COCC(=O)N2CCN(C3CCN(C)CC3)CC2)cc1 (stereo not drawn) [Example 204, 2-((1-(4-methoxyphenylsulfonyl)-1,2,3,4-tetrahydroquinolin-2-yl)methoxy)-1-(4-(1-methylpiperidin-4-yl)piperazin-1-yl)ethanone] | 105 | 99 | – | –
10 | CN1CCN(C2CCN(C(=O)COCC3CCCCN3S(=O)(=O)c3cccc4ccccc34)CC2)CC1 (stereo not drawn) [Example 230, 1-(4-(4-methylpiperazin-1-yl)piperidin-1-yl)-2-((1-(naphthen-1-ylsulfonyl)piperidin-2-yl)methoxy)ethanone] | – | – | 95.42 | 62.33
11 | CC(C)c1cc(C(C)C)c(S(=O)(=O)N2CCCCC2COCC(=O)N2CCN(C3CCN(C)CC3)CC2)c(C(C)C)c1 (stereo not drawn) [Example 119, 1-(4-(1-methylpiperidin-4-yl)piperazin-1-yl)-2-((1-(2,4,6-triisopropylphenylsulfonyl)piperidin-2-yl)methoxy)ethanone] | 95.9 | 61.9 | – | –

The next lines start with the values.

Row | inhibition at 10 µM (human B1R receptor) [%] | inhibition at 10 µM (B1R receptor of the rat) [%] | B1R Antagonism, human [10 μM] % Inhibition (human B1R receptor) [%] | B1R Antagonism, rat [10 μM] % Inhibition (B1R receptor of the rat) [%] | Compound
12 | 105 | 102 | – | – | CN(C)CCCN1CCN(C(=O)COCC2CCCCN2S(=O)(=O)c2c(Cl)cccc2Cl)CC1 (stereo not drawn) [Example 564, 2-((1-(2,6-dichlorophenylsulfonyl)piperidin-2-yl)methoxy)-1-(4-(3-(dimethylamino)propyl)piperazin-1-yl)ethanone]
13 | 7.17 | 100 | – | – | COc1cc(C)c(S(=O)(=O)N2CCCCC2COCC(=O)Nc2cc(-c3ccccc3OC)[nH]n2)c(C)c1 (stereo not drawn) [Example 540, 2-((1-(4-methoxy-2,6-dimethylphenylsulfonyl)piperidin-2-yl)methoxy)-N-(5-(2-methoxyphenyl)-1H-pyrazol-3-yl)acetamide]
14 | 97.3 | 93.4 | – | – | COc1cc(C)c(S(=O)(=O)N2CCCCC2COCC(=O)Nc2ccc(CN3CCC(C)CC3)cc2)c(C)c1 (stereo not drawn) [Example 421, 2-((1-(4-methoxy-2,6-dimethylphenylsulfonyl)piperidin-2-yl)methoxy)-N-(4-((4-methylpiperidin-1-yl)methyl)phenyl)acetamide]
15 | 82.3 | 101 | – | – | COc1cc(C)c(S(=O)(=O)N2CCCCC2COCC(=O)N2CCN(c3ccccn3)CC2)c(C)c1 (stereo not drawn) [Example 369, 2-((1-(4-methoxy-2,6-dimethylphenylsulfonyl)piperidin-2-yl)methoxy)-1-(4-(pyridin-2-yl)piperazin-1-yl)ethanone]
16 | 18.7 | 98.8 | – | – | COc1cc(C)c(S(=O)(=O)N2CCCCC2COCC(=O)Nc2nccc3ccccc23)c(C)c1 (stereo not drawn) [Example 370, N-(isoquinolin-1-yl)-2-((1-(4-methoxy-2,6-dimethylphenylsulfonyl)piperidin-2-yl)methoxy)acetamide]
17 | 98.6 | 100 | – | – | O=C(COCC1CCCCN1S(=O)(=O)c1c(Cl)cccc1Cl)N1CCN(Cc2ccc(Cl)c(Cl)c2)CC1 (stereo not drawn) [Example 405, 1-(4-(3,4-dichlorobenzyl)piperazin-1-yl)-2-((1-(2,6-dichlorophenylsulfonyl)piperidin-2-yl)methoxy)ethanone]
18 | 96.3 | 97.9 | – | – | COc1cc(C)c(S(=O)(=O)N2CCCC2COCC(=O)N2CCN(c3ccccc3OC)CC2)c(C)c1 (stereo not drawn) [Example 491, 2-((1-(4-methoxy-2,6-dimethylphenylsulfonyl)pyrrolidin-2-yl)methoxy)-1-(4-(2-methoxyphenyl)piperazin-1-yl)ethanone]
19 | 100 | 101 | – | – | O=C(COCC1CCCCN1S(=O)(=O)c1c(Cl)cccc1Cl)N1CCCC1Cc1ccccn1 (stereo not drawn) [Example 456, 2-((1-(2,6-dichlorophenylsulfonyl)piperidin-2-yl)methoxy)-1-(2-(pyridin-2-ylmethyl)pyrrolidin-1-yl)ethanone]
20 | 73.5 | 101 | – | – | COc1cc(C)c(S(=O)(=O)N2CCCCC2COCC(=O)N2CCN(c3ncccc3C#N)CC2)c(C)c1 (stereo not drawn) [Example 513, 2-(4-(2-((1-(4-methoxy-2,6-dimethylphenylsulfonyl)piperidin-2-yl)methoxy)acetyl)piperazin-1-yl)nicotinonitrile]
21 | -3.53 | 103 | – | – | COc1ccc(S(=O)(=O)N2CCCCC2COCC(=O)N2CCN(CCOc3ccccc3)CC2)cc1 (stereo not drawn) [Example 558, 2-((1-(4-methoxyphenylsulfonyl)piperidin-2-yl)methoxy)-1-(4-(2-phenoxyethyl)piperazin-1-yl)ethanone]
22 | 101 | 98.2 | – | – | COc1cc(C)c(S(=O)(=O)N2CCCC2COCC(=O)N2CCN(Cc3ccc4c(c3)OCO4)CC2)c(C)c1 (stereo not drawn) [Example 462, 1-(4-(benzo[d][1,3]dioxol-5-ylmethyl)piperazin-1-yl)-2-((1-(4-methoxy-2,6-dimethylphenylsulfonyl)pyrrolidin-2-yl)methoxy)ethanone]
23 | 103 | 99.8 | – | – | O=C(COCC1CCCCN1S(=O)(=O)c1c(Cl)cc(Cl)cc1Cl)N1CCC(c2ccncc2)C1 (stereo not drawn) [Example 390, 1-(3-(pyridin-4-yl)pyrrolidin-1-yl)-2-((1-(2,4,6-trichlorophenylsulfonyl)piperidin-2-yl)methoxy)ethanone]
24 | 91 | 101 | – | – | COc1cc(C)c(S(=O)(=O)N2CCCCC2COCC(=O)N2CCN(Cc3ccccc3F)CC2)c(C)c1 (stereo not drawn) [Example 387, 1-(4-(2-fluorobenzyl)piperazin-1-yl)-2-((1-(4-methoxy-2,6-dimethylphenylsulfonyl)piperidin-2-yl)methoxy)ethanone]
